In patent US20260062437A1, “ANTIVIRAL COMPOUNDS” (priority 2022, published 2026):
“Also recorded” adds a separate entry of the source. Read-outs that look alike come from different tables or passages of the source.

Tests used:
[1] = system: ZIKV; settings: cited from earlier work; for antiviral activity against ZIKV: previously tested
[2] = system: Vero cells; assay: Cytotoxicity assay (Alamar blue) in Vero cells; format: cell-based; settings: for decrease in cell viability: after 5 days (HLB-0532246: at high concentrations); for cytotoxicity / change in cell viability: after 2 or 5 days; for change in cell viability: over/after 5 days
Description: (§1) HUH7 and Vero cell lines were maintained in a humidified 5% CO2 environment at 37° C. HUH7 cells were cultured in DMEM (4500 mg/L “high glucose”+L-glutamine+25 mM HEPES-sodium pyruvate) supplemented with fetal bovine serum (10% FBS), penicillin (100 IU/mL), streptomycin ([…]), and 1% nonessential amino acids (NEAA). Vero cells were cultured in EMEM media supplemented with FBS (10% FBS), penicillin (100 IU/mL), and streptomycin (100 μg/mL). Cytotoxicity assays were done similarly to a previous report (J. Med. Chem. 2021, 64, 15429-15439). HUH7 or Vero cells were seeded at 2,000 cells/well in their appropriate cell culture media (50 μL) in 96-well clear plates and incubated for 24 hours. A DMSO solution of each individual compound was serially diluted (solution concentrations of 0.1, 0.5 and 1.0 mM were made) in the appropriate cell line media, and each solution (50 μL) was dosed to the cells (well volume total of 100 μL; final DMSO concentration of 0.5%). DMSO-only and no-cell control wells were dosed with a DMSO-media solution (50 μL of 1% DMSO in media) rather than compound. The cells were then incubated for 2 or 5 days. Two hours before the designated time point, Alamar blue (10 μL) was added to each well. At the time point, fluorescence data were measured using a BioTek Synergy H1 microplate reader. Cell viability was calculated by subtracting background fluorescence (no-cell control) from the measured fluorescence of each well. Wells with compounds were normalized to the DMSO-only control (100% viability) and no-cell controls. Each individual experiment was performed in groups of three technical replicates. For the reported Vero studies, cytotoxicity experiments were repeated in biological triplicate. The final cell viability percentage was calculated by averaging % viability from each of the biological replicates, and the uncertainty was calculated by propagating the standard deviations from each biological replicate (taking the square root of the sum of the squares of individual standard deviations).

[3] = system: HUH7 cells; assay: Cytotoxicity assay (Alamar blue) in HUH7 cells; format: cell-based; settings: for decrease in cell viability: after 5 days (HLB-0532246: at high concentrations); for cytotoxicity / change in cell viability: after 2 or 5 days; for change in cell viability: over/after 5 days
Description: as §1

[4] = system: WNV; settings: previously tested, cited from earlier work
[5] = system: West Nile Virus; assay: Antiviral plaque assay with West Nile Virus; format: cell-based
[6] = system: ZIKV; assay: Antiviral testing against ZIKV; format: cell-based, Zika Virus
[7] = molecular target: polymerase of dengue (DENV) (Dengue virus type 2, UniProt P29990); settings: cited from earlier work
Sequence of polymerase of dengue (DENV) (P29990 2492-3391): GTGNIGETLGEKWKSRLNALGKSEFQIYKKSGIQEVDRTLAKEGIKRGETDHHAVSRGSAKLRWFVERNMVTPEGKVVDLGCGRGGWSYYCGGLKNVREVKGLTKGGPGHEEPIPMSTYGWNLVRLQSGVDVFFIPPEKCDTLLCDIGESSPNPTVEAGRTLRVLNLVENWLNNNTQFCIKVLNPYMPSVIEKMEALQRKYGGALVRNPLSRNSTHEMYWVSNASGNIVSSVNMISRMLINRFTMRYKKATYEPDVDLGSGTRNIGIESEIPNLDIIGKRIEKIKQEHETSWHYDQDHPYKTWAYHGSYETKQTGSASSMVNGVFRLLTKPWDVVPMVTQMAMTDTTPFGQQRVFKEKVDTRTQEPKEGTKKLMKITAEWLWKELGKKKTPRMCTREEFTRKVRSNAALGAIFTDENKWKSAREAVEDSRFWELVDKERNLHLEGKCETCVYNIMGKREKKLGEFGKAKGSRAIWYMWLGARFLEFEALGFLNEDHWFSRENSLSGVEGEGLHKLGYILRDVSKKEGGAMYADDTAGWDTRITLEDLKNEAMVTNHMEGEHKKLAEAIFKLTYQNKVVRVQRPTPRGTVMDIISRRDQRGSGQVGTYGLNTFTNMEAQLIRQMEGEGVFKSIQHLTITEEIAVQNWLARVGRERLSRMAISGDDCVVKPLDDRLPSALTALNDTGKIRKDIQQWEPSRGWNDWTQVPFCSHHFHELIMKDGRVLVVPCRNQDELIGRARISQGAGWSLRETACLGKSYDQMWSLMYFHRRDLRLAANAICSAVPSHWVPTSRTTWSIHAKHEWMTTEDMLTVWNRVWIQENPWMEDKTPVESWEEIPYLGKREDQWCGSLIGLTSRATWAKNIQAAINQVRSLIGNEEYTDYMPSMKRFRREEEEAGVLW

[8] = molecular target: polymerase of WNV (West Nile virus, UniProt P06935); settings: cited from earlier work
Sequence of polymerase of WNV (P06935 2526-3430): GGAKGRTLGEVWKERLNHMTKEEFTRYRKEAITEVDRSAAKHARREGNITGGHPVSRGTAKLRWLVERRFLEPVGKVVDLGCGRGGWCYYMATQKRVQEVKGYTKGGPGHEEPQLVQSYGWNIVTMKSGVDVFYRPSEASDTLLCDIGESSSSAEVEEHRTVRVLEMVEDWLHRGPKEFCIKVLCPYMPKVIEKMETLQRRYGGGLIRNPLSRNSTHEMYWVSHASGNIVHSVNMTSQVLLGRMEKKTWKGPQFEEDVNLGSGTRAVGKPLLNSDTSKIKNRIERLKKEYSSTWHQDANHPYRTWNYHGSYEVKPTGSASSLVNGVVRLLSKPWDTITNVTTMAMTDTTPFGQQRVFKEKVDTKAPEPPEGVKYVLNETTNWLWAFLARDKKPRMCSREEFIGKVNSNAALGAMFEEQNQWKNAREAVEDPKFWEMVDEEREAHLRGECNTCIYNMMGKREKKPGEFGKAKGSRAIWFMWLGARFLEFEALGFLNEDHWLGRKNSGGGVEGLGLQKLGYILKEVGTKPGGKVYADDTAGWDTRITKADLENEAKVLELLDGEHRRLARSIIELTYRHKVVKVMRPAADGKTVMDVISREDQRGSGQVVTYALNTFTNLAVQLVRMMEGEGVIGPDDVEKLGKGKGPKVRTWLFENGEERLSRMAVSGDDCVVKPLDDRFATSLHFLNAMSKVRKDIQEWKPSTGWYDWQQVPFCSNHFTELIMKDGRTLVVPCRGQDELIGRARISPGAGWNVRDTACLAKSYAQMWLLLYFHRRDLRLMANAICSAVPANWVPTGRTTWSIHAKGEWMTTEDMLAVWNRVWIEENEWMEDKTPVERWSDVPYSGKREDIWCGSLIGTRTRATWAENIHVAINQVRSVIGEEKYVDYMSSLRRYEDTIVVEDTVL

[9] = molecular target: polymerase of ZIKV (Zika virus, UniProt Q32ZE1); settings: cited from earlier work
Sequence of polymerase of ZIKV (Q32ZE1 2517-3419): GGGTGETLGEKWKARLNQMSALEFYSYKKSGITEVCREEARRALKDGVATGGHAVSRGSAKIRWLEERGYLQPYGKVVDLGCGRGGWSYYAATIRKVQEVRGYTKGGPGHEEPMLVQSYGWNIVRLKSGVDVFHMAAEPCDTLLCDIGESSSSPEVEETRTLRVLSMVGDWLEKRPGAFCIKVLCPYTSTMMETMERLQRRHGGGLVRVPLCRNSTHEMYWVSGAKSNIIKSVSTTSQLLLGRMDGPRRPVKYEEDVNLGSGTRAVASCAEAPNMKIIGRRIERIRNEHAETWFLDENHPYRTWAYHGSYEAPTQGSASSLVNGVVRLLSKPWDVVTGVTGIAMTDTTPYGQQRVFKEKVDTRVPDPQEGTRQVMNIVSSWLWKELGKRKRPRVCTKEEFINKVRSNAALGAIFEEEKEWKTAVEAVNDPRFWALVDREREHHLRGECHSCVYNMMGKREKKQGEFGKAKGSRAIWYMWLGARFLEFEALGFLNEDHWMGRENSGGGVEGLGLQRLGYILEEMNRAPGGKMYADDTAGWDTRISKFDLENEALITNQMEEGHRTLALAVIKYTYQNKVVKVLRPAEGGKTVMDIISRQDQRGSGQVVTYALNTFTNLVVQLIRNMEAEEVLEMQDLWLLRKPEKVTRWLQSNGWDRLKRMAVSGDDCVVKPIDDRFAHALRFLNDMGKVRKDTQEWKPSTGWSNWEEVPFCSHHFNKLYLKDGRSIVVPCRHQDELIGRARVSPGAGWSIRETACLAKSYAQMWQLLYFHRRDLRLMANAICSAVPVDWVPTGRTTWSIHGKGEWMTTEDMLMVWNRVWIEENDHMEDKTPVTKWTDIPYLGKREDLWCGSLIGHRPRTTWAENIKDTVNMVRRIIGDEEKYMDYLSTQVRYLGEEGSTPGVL

[10] = molecular target: polymerase of hepatitis C (HCV) (Hepatitis C virus genotype 1a, UniProt P27958); settings: cited from earlier work
Sequence of polymerase of hepatitis C (HCV) (P27958 2421-3011 limits assumed): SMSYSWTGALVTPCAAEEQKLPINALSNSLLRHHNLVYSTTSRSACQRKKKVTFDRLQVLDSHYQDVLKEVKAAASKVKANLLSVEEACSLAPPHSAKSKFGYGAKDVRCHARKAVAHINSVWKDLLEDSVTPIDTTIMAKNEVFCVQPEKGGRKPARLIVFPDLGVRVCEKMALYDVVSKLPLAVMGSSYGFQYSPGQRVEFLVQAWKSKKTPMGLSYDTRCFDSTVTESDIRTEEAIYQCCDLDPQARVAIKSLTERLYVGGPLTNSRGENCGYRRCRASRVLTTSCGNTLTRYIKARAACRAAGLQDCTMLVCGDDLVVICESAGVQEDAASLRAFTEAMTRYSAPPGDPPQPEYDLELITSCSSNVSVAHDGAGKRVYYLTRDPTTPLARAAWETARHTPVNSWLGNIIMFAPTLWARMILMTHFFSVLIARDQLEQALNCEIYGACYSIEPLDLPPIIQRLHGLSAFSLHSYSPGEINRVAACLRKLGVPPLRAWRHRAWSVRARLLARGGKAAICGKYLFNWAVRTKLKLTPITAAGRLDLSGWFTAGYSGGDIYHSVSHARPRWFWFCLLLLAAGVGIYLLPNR

[11] = molecular target: polymerase of polio (PV) (Poliovirus type 1, UniProt P03300); settings: cited from earlier work
Sequence of polymerase of polio (PV) (P03300 1749-2209 limits assumed): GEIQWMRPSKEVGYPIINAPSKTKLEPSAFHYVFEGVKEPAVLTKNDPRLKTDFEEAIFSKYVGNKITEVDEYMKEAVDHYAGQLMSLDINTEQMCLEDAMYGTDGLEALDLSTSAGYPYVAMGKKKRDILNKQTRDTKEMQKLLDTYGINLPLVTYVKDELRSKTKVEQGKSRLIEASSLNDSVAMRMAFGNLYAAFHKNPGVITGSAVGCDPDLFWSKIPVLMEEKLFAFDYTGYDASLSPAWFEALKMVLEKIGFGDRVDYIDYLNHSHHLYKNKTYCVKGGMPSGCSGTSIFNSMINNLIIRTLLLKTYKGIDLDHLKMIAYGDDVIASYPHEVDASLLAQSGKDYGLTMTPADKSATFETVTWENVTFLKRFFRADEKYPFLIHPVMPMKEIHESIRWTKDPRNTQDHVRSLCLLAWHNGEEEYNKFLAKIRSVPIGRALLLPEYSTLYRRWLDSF

[12] = molecular target: polymerase of SARS-CoV-2 (Severe acute respiratory syndrome coronavirus 2, UniProt P0DTD1); settings: cited from earlier work

SMILES: Nc1ccn([C@@H]2OC(CO)=C[C@H]2O)c(=O)n1 [3′-deoxy-3′,4′-didehydro-cytidine]
- ZIKV inhibitory activity ([1]; cellular studies (Gizzi et al., Nature 2018)): only weak ZIKV inhibitory activity

SMILES: Nc1ccn([C@@H]2OC(CO)=C[C@@H]2O)c(=O)n1 [HLB-0532246, reference compound]
- decrease in cell viability [2]: 10%
- decrease in cell viability [3]: 10%
- antiviral activity against ZIKV ([1]; Vero cells): demonstrated antiviral activity
- antiviral activity against WNV ([4]; cell line not stated): inactive

SMILES: CC(C)OC(=O)[C@H](C)N[P@](=O)(OCC1=C[C@H](O)[C@H](n2ccc(N)nc2=O)O1)Oc1ccccc1 [HLB-0532247]
- cytotoxicity / change in cell viability [2]: did not show any cytotoxicity
- cytotoxicity / change in cell viability [3]: did not show any cytotoxicity
- antiviral activity against ZIKV ([1]; HUH7 cells): potent antiviral activity
- antiviral activity against ZIKV ([1]; Vero cells): potent antiviral activity
- antiviral activity against WNV ([4]; HUH7 cells): potent antiviral activity

SMILES: CC(C)OC(=O)[C@H](C)N[P@](=O)(OCC1=C[C@H](O)[C@H](n2ccc(=O)[nH]c2=O)O1)Oc1ccccc1 [HLB-0532254]
- decrease in cell viability [2]: 10%
- decrease in cell viability [3]: 25%
- antiviral activity against West Nile Virus [5]: no activity; also recorded: not active
- antiviral activity against ZIKV ([6]; at 1.0 mM): did not display antiviral activity
- antiviral activity against ZIKV ([6]; dosed at 0.1 mM): potent activity

SMILES: Cc1cn([C@@H]2OC(CO[P@@](=O)(N[C@@H](C)C(=O)OC(C)C)Oc3ccccc3)=C[C@@H]2O)c(=O)[nH]c1=O [HLB-0535065]
- cytotoxicity / change in cell viability [2]: did not show any cytotoxicity
- cell viability ([3]; by day 5): 50%
- antiviral activity against West Nile Virus [5]: no activity
- antiviral activity against ZIKV [6]: no activity

SMILES: Cc1cn([C@@H]2OC(CO)=C[C@@H]2O)c(=O)[nH]c1=O [HLB-0535066]
- cytotoxicity / change in cell viability [2]: did not show any cytotoxicity
- change in cell viability [3]: remained unchanged
- antiviral activity against West Nile Virus [5]: no activity
- antiviral activity against ZIKV [6]: no activity

SMILES: O=c1ccn([C@@H]2OC(CO)=C[C@@H]2O)c(=O)[nH]1 [HLB-0535069]
- change in cell viability [2]: did not show a significant decrease in cell viability
- change in cell viability [3]: did not show a significant decrease in cell viability
- antiviral activity against West Nile Virus [5]: no activity
- antiviral activity against ZIKV [6]: did not display antiviral activity

SMILES: Nc1nc2c(ncn2[C@@H]2OC(CO)=C[C@@H]2O)c(=O)[nH]1 [HLB-0535072]
- cytotoxicity / change in cell viability [2]: No significant change in cell viability
- change in cell viability [3]: slight decrease in cell viability
- antiviral activity against West Nile Virus [5]: no activity
- antiviral activity against ZIKV [6]: Antiviral activity was observed

SMILES: CC(C)OC(=O)[C@H](C)N[P@](=O)(OCC1=C[C@H](O)[C@H](n2cnc3c(=O)[nH]c(N)nc32)O1)Oc1ccccc1 [HLB-0535073]
- cytotoxicity / change in cell viability [2]: No significant change in cell viability
- cytotoxicity / change in cell viability [3]: No significant change in cell viability
- antiviral activity against West Nile Virus [5]: no activity
- antiviral activity against ZIKV [6]: Antiviral activity was observed

SMILES: CC(C)OC(=O)[C@H](C)N[P@](=O)(OCC1=C[C@H](O)[C@H](n2cnc3c(=O)[nH]cnc32)O1)Oc1ccccc1 [HLB-0535083]
- change in cell viability [2]: No change in cell viability
- change in cell viability [3]: No change in cell viability
- antiviral activity against West Nile Virus [5]: no activity
- antiviral activity against ZIKV [6]: no activity

SMILES: Nc1ccn([C@@H]2OC(COP(=O)(O)OP(=O)(O)OP(=O)(O)O)=C[C@H]2O)c(=O)n1 [ddhCTP, 3′-Deoxy-3′,4′-didehydro-cytidine-5′-triphosphate]
- inhibition of DENV polymerase [7]: inhibits
- inhibition of WNV polymerase [8]: inhibits
- inhibition of ZIKV polymerase [9]: inhibits
- inhibition of HCV polymerase [10]: inhibits
- inhibition of PV polymerase [11]: weak inhibition
- inhibition of SARS-CoV-2 polymerase [12]: inhibits
